Data published in article PMC7334075 (Molecular carcinogenesis, 2020).

Target: KRAS-G12V (Homo sapiens, UniProt P01116, G12V)
Assay: DSF
Type: binding

With `C=C(C)[C@@H]1CC[C@]2(C)CC[C@]3(C)[C@H](CC[C@@H]4[C@@]5(C)CC[C@H](O)C(C)(C)[C@@H]5CC[C@]43C)[C@@H]12` [Lupeol, Lup-20(29)-en-3b-ol] the “DSF (SYPRO Orange) with GDP-loaded protein; no Kd” value was “(loaded with GDP) suggesting binding of Lupeol to both wt-KRAS and KRAS-^G12V protein”.
